# In patent US20210113594A1, “TUMOR IMMUNOMODULATOR” (OSAKA UNIVERSITY, priority 2018, published 2021):
# Key:
# U251 cell line [1] = assay: Tumor-cytotoxic activity using peripheral blood mononuclear cells with EphA2-CD3 BiTE; settings: test drug 2.5 μM + BiTE 100 ng/mL; PBMCs of healthy people + U251; 48 hours; n=3; DMC, MC, CTC p<0.01; TC, MINO p<0.05
# Procedure: Thereafter, by measuring the degree of cytotoxicity to the tumor cells (tumor-cytotoxic activity) by the PBMCs, the anti-tumor activity of T cells in the PBMCs was evaluated.
# (1) A U251 cell line was suspended in a RPMI1640 medium containing 10% FBS (a 10% FBS-supplemented RPMI1640 medium), and then detached with trypsin. The cell line was suspended in a 10% FBS-supplemented RPMI1640 medium such that the cell count was 1×10^5/mL, thereby preparing a cell suspension. The cell suspension was seeded in a 96-well plate at a rate of 100 μL/well, and incubated in a wet incubator at 37° C. for 18 hours in the presence of 5% CO2 gas. […]
# (3) EphA 2-CD3 BiTE (registered trademark) containing an antigen-binding domain for EphA2 and an antigen-binding domain for CD3 in the molecule was prepared at 400 ng/mL in a 10% FBS-supplemented RPMI 1640 medium (“BiTE solution”). […] The amount of the 10% FBS-supplemented RPMI medium per well was determined so that the total final amount was 200 μL. […]
# (5) The absorbance at 492 nm of each well of the 96-well microplate after the completion of incubation in step (4) was measured with a microplate reader. Subsequently, tumor-cytotoxic activity was calculated in accordance with the following equation.
# Absorbance of a well consisting of U251 cell line and PBMCs=A […]
# [2] = test system: granzyme B-expressing CD8+T cells; assay: Granzyme B staining (FACS) of PBMCs; format: cell-based, human; settings: DMC 2.5 μM + BiTE; PBMCs of four healthy people; p=0.01
# Procedure: The medium collected in section 1(4) above was centrifuged at 400 g for 5 minutes, and the supernatant was removed to leave the PBMC pellet. Each antibody (CD3, CD4, CD8, and CD45RA) was diluted 100-fold with 2% FBS- and 10 mM HEPES-supplemented HBSS medium (“HBSS+2% FBS+10 mM HEPES” medium). Such antibody diluents were individually added at 30 μL/tube to the pellet in which the supernatant was removed, followed by incubation at 4° C. for 30 minutes. After an HBSS+2% FBS+10 mM HEPES medium was added at 200 μL/tube, and centrifugation was performed at 400 g for 5 minutes, the supernatant was removed to leave the pellet. After the remaining PBMCs were suspended by adding a fix buffer at 100 μL/tube, incubation was performed for 30 minutes at 4° C.
# The tube obtained after the completion of incubation was centrifuged at 400 g for 5 minutes to remove the supernatant and leave the PBMC pellet. After a wash buffer was added at 200 μL/tube to suspend the pellet, centrifugation was performed at 400 g for 5 minutes to remove the supernatant and leave the PBMC pellet. An anti-Granzyme B antibody was diluted 100-fold in a wash buffer, and the remaining PBMCs were suspended in the antibody diluent (30 μL/tube), followed by incubation for 30 minutes at 4° C. […]
# CD8+T cells = assay: CytoTell assay, proliferative capacity of CD8+T cells; format: cell-based, human; settings: DMC 2.5 μM + BiTE; PBMCs of five healthy people; 96 hours; p=0.007
# Procedure: PBMCs were collected from peripheral blood of healthy people according to the method described in section 1(1) above. A solution in which CytoTell red was mixed with the HBSS+2% FBS+10 mM HEPES medium was added to the collected PBMC pellet, followed by incubation at 37° C. for 30 minutes. After the completion of incubation, the supernatant was removed by centrifugation at 400 g for 5 minutes to leave the PBMC pellet. By adding a 10% FBS-supplemented RPMI medium, the remaining PBMCs were suspended to prepare a suspension of PBMCs having a cell count of 1×10^6/mL.
# As in section 1(3) above, a U251 cell line, PBMCs, and BiTE, or a U251 cell line, PBMC, BiTE, and a test drug, were contacted and cultured at 37° C. for 96 hours.
# After the completion of culture, the culture supernatant was collected, followed by washing in a 10% FBS-supplemented RPMI 1640 medium three times, and the media were also collected.
# The collected medium was centrifuged at 400 g for 5 min, and the supernatant was removed to leave the PBMC pellet. Each antibody (CD3, CD4, CD8, and CD45RA) was diluted 100-fold with a HBSS+2% FBS+10 mM HEPES medium. The antibody diluents were individually added at 30 μL/tube to the pellet to suspend the remaining PBMCs, followed by incubation at 4° C. for 30 minutes. […]
# [3] = test system: CMV-specific cytotoxic T cells; assay: CMV-specific CTL induction (mixed CMV peptide/lymphocytes culture); format: cell-based, human; settings: DMC 2.5 μM; 14 days after CMV peptide stimulation; PBMCs of one healthy person; p<0.05
# Procedure: CMV peptides adjusted to 10 μg/mL in a 10% FBS-supplemented RPMI medium was added to PBMCs of healthy people with an HLA type of 24:02, followed by culture in a 96-well plate for 3 days. […] The medium containing PBMCs in each well was transferred into a 24-well plate for scale-up, followed by culture for another 3 days in a 10% FBS-supplemented RPMI medium containing 10 μg/mL peptide+20 U/mL IL-2±2.5 μM DMC. The medium was replaced with a 10% FBS-supplemented RPMI medium containing 10 μg/mL peptide+20 U/mL IL-2±2.5 μM DMC, followed by culture for another 4 days (culture for 14 days).
# After the completion of culture, centrifugation was performed at 400 g for 5 minutes to remove the supernatant and leave the PBMC pellet; and each antibody (CD3, CD4, and CD8) was diluted 100-fold, and CMV Tetramer was diluted 10-fold in a HBSS+2% FBS+10 mM HEPES medium, and added at 30 μL/tube to a PBMC pellet to suspend the PBMCs, followed by incubation at 4° C. for 30 minutes. By adding the HBSS+2% FBS+10 mM HEPES medium at 200 μL/tube, centrifugation was performed at 400 g for 5 minutes. The supernatant was removed to leave the PBMC pellet.
# The PBMCs left in the HBSS+2% FBS+10 mM HEPES medium were suspended, and the suspension was subjected to FACS analysis. […]
# U251 cell line [4] = assay: Tumor-cytotoxic activity of T cells in lung cancer tissue; format: cell-based, human; settings: BiTE + test drug (DMC); n=5 patients
# Procedure: Regarding the tumor-cytotoxic activity of T cells in lung cancer tissue, cells were collected from lung cancer tissue according to the following method. The tumor-cytotoxic activity was measured as the activity of the cell population.
# The cancer tissue was transferred to a 6-cm dish and minced. The cancer tissue was then placed in a tissue stirring solution (tumor dissociation Kit (Miltenyi Biotec) was added to HBSS+2% FBS+10 mM HEPES), followed by stirring with a gentle MACS™ Dissociator (Miltenyi Biotec). Incubation was then performed by rotating the mixture in an incubator maintained at 37° C. for 30 minutes. […] The tumor-cytotoxic activity of the collected cells was measured in accordance with the same method as in section I.1(1) to (5) above. […]
# (§1) According to the method described in section I.5 above, T cells in tumor tissue of a lung cancer patient were collected; and by using such cells, tumor-cytotoxic activity was measured to examine the effect of the tetracycline-based compound. Specifically, T cells in tumor tissue of a lung cancer patient were collected according to the method described in section I.5 above; and the presence ratio of IFNγ-producing CD8^+T cells was measured according to the method described in section I.6 above, thus examining the effect of the tetracycline-based compound.
# [5] = test system: IFNγ-producing CD8+T cells; assay: IFNγ production assay on cells from lung cancer tissue; format: cell-based, human; settings: BiTE + test drug (DMC), n=3 patients
# Procedure: The IFNγ production capacity of cells in all media that were collected in section 5 in accordance with the method described in section 1(4) above was measured using an IFNγ secretion assay kit (Miltenyi Biotec).
# The medium collected in section 1(4) above was centrifuged at 400 g for 5 minutes to remove the supernatant. An IFNγ catch reagent diluted 100-fold in a 10% human serum-supplemented AIM medium was added at 100 μL/tube to the remaining PBMC pellet to suspend the PBMCs, followed by incubation at 4° C. for 10 minutes.
# A 10% human serum-supplemented AIM medium heated to 37° C. was dispensed at 1 mL/tube into the tube subjected to the incubation. While stirring the tube, incubation was performed at 37° C. for 45 minutes. […]
# as §1
# CT26WT cells = assay: Dependence on CD8+T cells of the enhancement of the anti-PD-L1 antibody in vivo (Example 9); design: species or system BALB/c mice
# Procedure: In the same manner as in Example 8, CT26WT cells were cultured, and subcutaneously inoculated to 6-week-old BALB/c mice (Day 0).
# Before the administration of DMC or water and an anti-PD-L1 antibody, the anti-CD8 antibody (InVivo MAb anti-mouse CD8α, produced by BioXCell) was intraperitoneally administered at 400 μg/200 μL/mouse to the CD8 depletion group on Day 6. Control IgG was administered at 400 μg/200 μL/mouse to the other groups.
# Next, administration of DMC was started on Day 7. The DMC was dissolved in saline, and then orally administered at 200 μL/mouse using an oral sonde. In the groups free of DMC, distilled water was orally administered at 200 μL/mouse. The DMC was administered once daily from Day 7 to Day 12.
# Subsequently, on Day 10, an anti-PD-L1 antibody or control IgG was intraperitoneally administered at 200 μg/200 μL/mouse.
# On Day 10 and Day 13, the tumor size was measured. The tumor volume was calculated in the same manner as in Example 8.
SMILES,T-cell anti-tumor activity (tumor-cytotoxic activity) as compared to BiTE alone (U251 cell line [1]),presence ratio of granzyme B-expressing CD8+T cells as compared to BiTE alone [2],proliferative capacity of CD8+T cells as compared to BiTE alone (CD8+T cells),"presence ratio of CMV-specific cytotoxic T cells (CMV Tetramer+CD8+T cells), DMC+ as compared to DMC− [3]",anti-tumor activity of T cells in lung cancer tissue compared to BiTE alone (U251 cell line [4]),presence ratio of IFNγ-producing CD8+T cells compared to BiTE alone [5],"tumor volume on Day 13 (CT26WT cells; Example 9, DMC 30 mg/kg oral Day 7 to Day 12, anti-PD-L1 antibody or control IgG 200 μg/mouse ip Day 10, no CD8 depletion)","increase in tumor volume as compared to the aPD-L1+H2O group (CT26WT cells; IgG+DMC group, DMC 30 mg/kg oral)"
"CN(C)[C@@H]1C(=O)C(C(N)=O)=C(O)[C@@]2(O)C(=O)C3=C(O)c4c(O)cccc4[C@@](C)(O)[C@H]3C[C@@H]12 [TC, tetracycline]",enhanced,–,–,–,–,–,–,–
"CN(C)[C@@H]1C(O)=C(C(N)=O)C(=O)[C@@]2(O)C(O)=C3C(=O)c4c(O)ccc(Cl)c4[C@@H](O)[C@H]3C[C@@H]12 [DMC, demethyl chlortetracycline]",–,high,high,significantly high,enhanced,increased,about 100 mm^3,more inhibited
